Experimental data reported in patent US7741020B2, “Methods for detecting Lp-PLA2 activity and inhibition of Lp-PLA2 activity” (Glaxo Group Limited, priority 2004, dated 2010).
Values joined by “and” are separate entries in the source; they are usually repeats but may differ in a detail not shown here. Identical values can stand only once.

What was measured:
[1] = molecular target: T1, Lp-PLA2 (Homo sapiens, UniProt Q13093); experiment: High throughput radiometric assay for Lp-PLA2 activity (3H-PAF); type: biochemical; details: plasma of individual human subjects
T1 sequence (Q13093 22-441): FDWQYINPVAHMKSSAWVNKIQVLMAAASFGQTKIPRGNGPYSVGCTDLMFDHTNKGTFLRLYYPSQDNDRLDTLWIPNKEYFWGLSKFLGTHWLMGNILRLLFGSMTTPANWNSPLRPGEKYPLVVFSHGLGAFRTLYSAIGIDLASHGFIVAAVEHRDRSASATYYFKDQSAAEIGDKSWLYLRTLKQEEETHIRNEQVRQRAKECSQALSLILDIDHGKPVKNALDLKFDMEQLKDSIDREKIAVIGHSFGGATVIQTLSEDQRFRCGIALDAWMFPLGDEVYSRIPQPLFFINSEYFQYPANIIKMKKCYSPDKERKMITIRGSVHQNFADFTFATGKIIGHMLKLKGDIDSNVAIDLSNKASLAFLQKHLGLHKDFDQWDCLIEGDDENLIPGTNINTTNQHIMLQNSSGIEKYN
Protocol: (cat #6005162) Reagents • HEPES (4-(2-hydroxyethyl)-1-piperazineethane sulfonic acid) Sigma Chemical Co., St. Louis Mo. […] (Cat # E7889; 0.5 M) • ^3H-Platelet Activating Factor, 1-O-Hexadecyl-[acetyl-^3H(N)], (^3H-PAF)-NEN Life Science Products, Roxbury, Mass. (Cat # NET-910, supplied as an ethanol solution, typically 0.1 mCi/mL; 250 uCi) • C16-PAF, (1-hexadecyl-2-acetyl-sn-glycero-3-phosphocholine): Avanti Polar Lipids, Alabaster, Ala. […] (Cat # T9159) Assay Buffer • 100 mM Hepes, pH 7.4 • 150 mM NaCl • 5 mM EDTA • Store it at room temperature Procedures • 1. Prepare a ^3H-PAF working solution (for 100 reactions): • a) Aliquot 480 μl ^3H-PAF (10 μM=0.1 mCi/ml at 10.0 Ci/mmol) and 125.3 μl of [C16]PAF (5.0 mg/ml; MW: 524) to a tube; • b) Mix and air dry in the hood; • c) Resuspend the dried pellets in 12.0 ml of assay buffer giving working solutions of 100 μM PAF (i.e. ^3H-PAF at 0.4 μM and cold [C16]PAF at 99.6 μM); • 2. Aliquot 5 μL of assay buffer (for Total counts and Blanks; n=8) or plasma samples in duplicates into a 96-well plate; • 3. Equilibrate the plate to 21° C.; • 4. Add 100 μL of the ^3H-PAF solution to each well, mix and incubate the plate at 21° C. for 5 minutes; • 5. […]; • 6. Add 25 μL of ice-cold TCA solution (56%) to each well, mix and incubate the plate in a refrigerator for 15 minutes; • 7. Centrifuge the plate at 6,000 g for 15 minutes at 4° C.; • 8. […] Add 10 μL of ^3H-PAF working solution to 6 Total Counts wells; • 10. […] Cover the plate with a plate tape and vortex mix at max speed for 10 minutes; • 12. […] Count with a TopCount scintillation counter for 2 minutes each; and • 14.

[2] = molecular target: T1, Lp-PLA2; experiment: Modified drug-sensitive colorimetric assay, plasma; type: biochemical; details: plasma of individual human subjects
Description: Assay Procedure • 1. […] Use duplicates for each sample. • 4.
Pre-dose plasma samples for each subject on day 0 of the study were also available.

COCCN1CCC(N(Cc2ccc(-c3ccc(C(F)(F)F)cc3)cc2)C(=O)Cn2c(SCc3cccc(F)c3F)cc(=O)c3ccccc32)CC1 [Formula I]
% Inhibition Radiometric ([1]; 50 mg, 5 hr after dosing): 86.07%
% Inhibition Radiometric ([1]; 120 mg, 0.5 hr after dosing): 64.75% and 81.63% and 44.97% and 33.96%
Lp-PLA2 Activity Radiometric ([1]; 120 mg, 0.5 hr after dosing): 35.83 nmol/min/mL and 25.97 nmol/min/mL and 16.07 nmol/min/mL and 39.68 nmol/min/mL and 58.09 nmol/min/mL
% Inhibition Radiometric ([1]; 120 mg, 1 hr after dosing): 88.66%
Lp-PLA2 Activity Radiometric ([1]; 120 mg, 1 hr after dosing): 10.00 nmol/min/mL
Lp-PLA2 Activity Radiometric ([1]; 120 mg, 2 hr after dosing): 10.00 nmol/min/mL
Lp-PLA2 Activity Radiometric ([1]; 120 mg, 3 hr after dosing): 14.09 nmol/min/mL and 12.80 nmol/min/mL and 10.00 nmol/min/mL (2×) and 21.08 nmol/min/mL
% Inhibition Radiometric ([1]; 120 mg, 4 hr after dosing): 90.91% and 72.94%
Lp-PLA2 Activity Radiometric ([1]; 120 mg, 4 hr after dosing): 14.00 nmol/min/mL and 10.00 nmol/min/mL (2×)
% Inhibition Radiometric ([1]; 120 mg, 5 hr after dosing): 91.73%
Lp-PLA2 Activity Radiometric ([1]; 120 mg, 5 hr after dosing): 14.05 nmol/min/mL and 11.69 nmol/min/mL and 10.00 nmol/min/mL (2×) and 20.24 nmol/min/mL
Lp-PLA2 Activity Radiometric ([1]; 120 mg, 6 hr after dosing): 10.00 nmol/min/mL
Lp-PLA2 Activity Radiometric ([1]; 120 mg, 9 hr after dosing): 21.11 nmol/min/mL and 18.51 nmol/min/mL and 14.41 nmol/min/mL and 32.48 nmol/min/mL and 11.21 nmol/min/mL
Lp-PLA2 Activity Radiometric ([1]; 120 mg, 12 hr after dosing): 24.22 nmol/min/mL and 21.27 nmol/min/mL and 16.97 nmol/min/mL and 34.26 nmol/min/mL and 15.69 nmol/min/mL
% Inhibition Drug-Sensitive Colorimetric ([2]; 50 mg, 0.5 hr after dosing): 16.91% and 18.69% and 26.95%
Lp-PLA2 Activity Drug-Sensitive Colorimetric ([2]; 50 mg, 0.5 hr after dosing): 89.99 nmol/min/mL and 69.79 nmol/min/mL and 81.70 nmol/min/mL and 32.96 nmol/min/mL and 141.14 nmol/min/mL
Lp-PLA2 Activity Drug-Sensitive Colorimetric ([2]; 50 mg, 1 hr after dosing): 17.15 nmol/min/mL and 39.10 nmol/min/mL and 24.96 nmol/min/mL and 22.46 nmol/min/mL and 37.07 nmol/min/mL
% Inhibition Drug-Sensitive Colorimetric ([2]; 50 mg, 4 hr after dosing): 85.71%
Lp-PLA2 Activity Drug-Sensitive Colorimetric ([2]; 50 mg, 5 hr after dosing): 20.74 nmol/min/mL and 31.77 nmol/min/mL and 16.58 nmol/min/mL and 15.83 nmol/min/mL and 18.35 nmol/min/mL
Lp-PLA2 Activity Drug-Sensitive Colorimetric ([2]; 50 mg, 6 hr after dosing): 23.71 nmol/min/mL and 66.08 nmol/min/mL and 21.01 nmol/min/mL and 25.84 nmol/min/mL and 25.12 nmol/min/mL
% Inhibition Drug-Sensitive Colorimetric ([2]; 50 mg, 12 hr after dosing): 60.73% and 36.04% and 55.61%
Lp-PLA2 Activity Drug-Sensitive Colorimetric ([2]; 50 mg, 12 hr after dosing): 34.83 nmol/min/mL and 76.84 nmol/min/mL and 111.00 nmol/min/mL and 53.72 nmol/min/mL and 44.60 nmol/min/mL
% Inhibition Drug-Sensitive Colorimetric ([2]; 120 mg, 0.5 hr after dosing): 88.89% and 85.22% and 45.29% and 41.39%
Lp-PLA2 Activity Drug-Sensitive Colorimetric ([2]; 120 mg, 0.5 hr after dosing): 31.08 nmol/min/mL and 20.14 nmol/min/mL and 19.87 nmol/min/mL and 63.95 nmol/min/mL and 64.40 nmol/min/mL
% Inhibition Drug-Sensitive Colorimetric ([2]; 120 mg, 1 hr after dosing): 88.85%
Lp-PLA2 Activity Drug-Sensitive Colorimetric ([2]; 120 mg, 1 hr after dosing): 19.69 nmol/min/mL and 23.29 nmol/min/mL and 14.99 nmol/min/mL and 30.22 nmol/min/mL and 18.74 nmol/min/mL
Lp-PLA2 Activity Drug-Sensitive Colorimetric ([2]; 120 mg, 2 hr after dosing): 19.69 nmol/min/mL and 19.54 nmol/min/mL and 12.22 nmol/min/mL and 29.51 nmol/min/mL and 10.11 nmol/min/mL
Lp-PLA2 Activity Drug-Sensitive Colorimetric ([2]; 120 mg, 3 hr after dosing): 13.17 nmol/min/mL and 20.61 nmol/min/mL and 15.08 nmol/min/mL and 30.49 nmol/min/mL and 11.51 nmol/min/mL
Lp-PLA2 Activity Drug-Sensitive Colorimetric ([2]; 120 mg, 4 hr after dosing): 7.30 nmol/min/mL and 21.27 nmol/min/mL and 16.18 nmol/min/mL and 29.42 nmol/min/mL and 11.21 nmol/min/mL
Lp-PLA2 Activity Drug-Sensitive Colorimetric ([2]; 120 mg, 5 hr after dosing): 22.94 nmol/min/mL and 21.36 nmol/min/mL and 18.14 nmol/min/mL and 35.46 nmol/min/mL and 12.22 nmol/min/mL
Lp-PLA2 Activity Drug-Sensitive Colorimetric ([2]; 120 mg, 6 hr after dosing): 20.65 nmol/min/mL and 21.39 nmol/min/mL and 18.74 nmol/min/mL and 39.29 nmol/min/mL and 17.01 nmol/min/mL
Lp-PLA2 Activity Drug-Sensitive Colorimetric ([2]; 120 mg, 9 hr after dosing): 27.16 nmol/min/mL and 27.87 nmol/min/mL and 26.18 nmol/min/mL and 50.81 nmol/min/mL and 21.03 nmol/min/mL
